Data set [1] is described as follows: Human Liver Microsomal Stability (Test C). Format: in vitro ADME. Conditions: human, liver microsomes. The procedure, abridged: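 Human liver microsome incubation per the Wernevik et al. integrated DMPK panel protocol. Intrinsic clearance reported as CLint in μl/min/mg protein, averaged arithmetically over repeat runs.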
Data set [2] in a line: Human Plasma Protein Binding (Test B). Particulars: fraction unbound (fu). Format: in vitro ADME. The procedure, abridged:
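Human plasma protein binding run per the published Wernevik et al. (2020) integrated DMPK panel protocol. Values are fraction unbound (fu, % free); repeat runs averaged arithmetically.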

The nature of data set [3]: Rat Hepatocyte Stability (Test E). Format: in vitro ADME. Particulars: rat, hepatocytes, geometric mean if run multiple times. In outline:
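Run per the published AstraZeneca-type rat hepatocyte stability protocol (Wernevik et al. panel). Values are mean intrinsic clearance, Clint in μl/min/10^6 cells; geometric mean used for repeated runs.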

Data set [4] is described as follows: Human Hepatocyte Stability (Test D). Particulars: human, cryopreserved pooled human hepatocytes (LiverPool 10-Donor), geometric mean if run multiple times. Format: in vitro ADME. The procedure, abridged:
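Pooled 10-donor cryopreserved human hepatocytes (≥80% viable) in L-15 medium at 0.25×10^6 cells per 0.25 mL well. Compound added from 100 μM acetonitrile solution; incubated at 37 °C with shaking, acetonitrile-quenched, LC-MS analysed. Clint (μL/min/10^6 cells) from ln % parent vs time slope; geometric mean of repeat runs.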

Data set [5] in a line: Solubility (Test F). Format: physicochemical. Conditions: arithmetic mean if run multiple times. As to the method:
The assay was conducted according to the Solubility Assay described in pages 164-167 of Wernevik, J. et al., “A Fully Integrated Assay Panel for Early Drug Metabolism and Pharmacokinetics Profiling”, Assay and Drug Development Technologies, 2020, 18(4), 157-179. Data are reported in Table 36 as solubility ([…]. Where the assay was run multiple times for the same compound, the arithmetic mean is reported.

Data set [6] concerns the target T1, human RXFP1 (Homo sapiens, UniProt Q9HBX9).
T1 sequence (Q9HBX9 1-757): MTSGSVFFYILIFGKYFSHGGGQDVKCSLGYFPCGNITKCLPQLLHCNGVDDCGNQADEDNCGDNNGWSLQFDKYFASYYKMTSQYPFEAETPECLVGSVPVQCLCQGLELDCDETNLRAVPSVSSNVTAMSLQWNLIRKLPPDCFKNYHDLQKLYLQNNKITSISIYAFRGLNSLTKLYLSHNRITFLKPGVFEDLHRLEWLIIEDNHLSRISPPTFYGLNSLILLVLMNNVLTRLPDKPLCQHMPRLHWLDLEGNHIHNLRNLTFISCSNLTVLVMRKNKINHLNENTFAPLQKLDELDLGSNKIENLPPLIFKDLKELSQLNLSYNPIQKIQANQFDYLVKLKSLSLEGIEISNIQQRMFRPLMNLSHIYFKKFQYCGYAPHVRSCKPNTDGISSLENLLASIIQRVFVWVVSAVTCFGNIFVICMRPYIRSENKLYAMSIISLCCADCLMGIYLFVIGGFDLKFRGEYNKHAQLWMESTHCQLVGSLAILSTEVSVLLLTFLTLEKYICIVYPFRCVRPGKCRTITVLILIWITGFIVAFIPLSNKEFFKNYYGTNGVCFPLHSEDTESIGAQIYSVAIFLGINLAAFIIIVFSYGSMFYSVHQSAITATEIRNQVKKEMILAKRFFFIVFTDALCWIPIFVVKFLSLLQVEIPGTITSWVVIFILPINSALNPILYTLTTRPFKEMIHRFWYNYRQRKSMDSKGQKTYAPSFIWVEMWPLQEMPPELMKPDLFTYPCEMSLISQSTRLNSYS
As to the kind of experiment: RXFP1 Hu cAMP (Test A). Format: cell-based. Set-up: expressed in transfected cells; host or cells: Jump-In T-REx CHO-K1 cells (ThermoFisher), induced with 10 ng/ml doxycycline for 24 h. The procedure, abridged:
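Cells: CHO-K1 stably carrying human RXFP1, expressed after 24 h 10 ng/ml doxycycline; 0.5 mM IBMX final, HTRF detection after 2 h at room temperature.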

Setting [7] is: RXFP1 Hu cAMP, read-out: Test A EC50.

Values after ≈ are worked out from the molar mass of the structure shown. Like-named read-outs stand apart in the source and are kept apart here.

In data set [1], `COc1cc(F)c(O[C@H]2CC[C@@](C)(C(=O)O)CC2)cc1C(=O)N[C@@H]1[C@H]2CC[C@H](C2)[C@@H]1C(=O)NCC1(C)CCCCC1` [Example 44] registered a microsomal CLint of 110 µL/min/mg. For the same compound, in data set [2], the “Test B Human Plasma Protein Binding (% free)” value stood at 2.1 % free. Further, the intrinsic clearance (hepatocyte CLint) in data set [3] came to 35 µL/min/1e6 cells. In addition, the intrinsic metabolic clearance (hepatocyte CLint) at 1 µM in data set [4] is 17 µL/min/1e6 cells. For the same compound, the solubility in data set [5] was 300 µM (≈ 172 µg/mL). Besides, the “Test A Sinf” value in data set [6] (RXFP1 Hu cAMP) is 107%. The concentration giving a half-maximal response (EC50) in data set [6] (setting [7]) was found to be 16 nM.

`COc1cc(F)c(-c2ccc(CC(=O)O)cc2)cc1C(=O)N[C@@H]1CCC[C@@H]1C(=O)Nc1cccc(S(=O)(=O)C(F)(F)F)c1` [Example 320]: in data set [1], the intrinsic clearance (microsomal CLint) stood at 14 µL/min/mg. Also, the “Test B Human Plasma Protein Binding (% free)” value in data set [2] is given as 0.67 % free. The compound also returned a hepatocyte CLint in data set [3] of 9.6 µL/min/1e6 cells. This compound gave a hepatocyte CLint at 1 µM in data set [4] of 11 µL/min/1e6 cells. The solubility in data set [5] is greater than 1000 µM. For the same compound, the “Test A Sinf” value in data set [6] (RXFP1 Hu cAMP) came to 119%. For the same compound, in data set [6] (setting [7]), the half-maximal effective concentration (EC50) was 460 nM.

In turn, `COc1cc(Cl)c(O[C@H]2CC[C@@](C)(C(=O)O)CC2)cc1C(=O)N[C@@H]1[C@H]2CC[C@H](C2)[C@@H]1C(=O)NC12CC(F)(C1)C2` [Example 411] had a microsomal CLint in data set [1] of 7.9 µL/min/mg. For the same compound, the “Test B Human Plasma Protein Binding (% free)” value in data set [2] is 1.8 % free. For the same compound, the intrinsic metabolic clearance (hepatocyte CLint) in data set [3] worked out at 17 µL/min/1e6 cells. Further, in data set [4], the hepatocyte CLint at 1 µM stood at 2.1 µL/min/1e6 cells. The compound further showed a solubility in data set [5] of 710 µM (≈ 400 µg/mL). In data set [6] (RXFP1 Hu cAMP), the “Test A Sinf” value was found to be 108%. In data set [6] (setting [7]), the concentration giving a half-maximal response (EC50) came to 24 nM.

As for `COc1cc(F)c(O[C@H]2CC[C@@H](C(=O)O)CC2)cc1C(=O)N[C@H]1[C@@H](C(=O)Nc2ccc(F)c(S(F)(F)(F)(F)F)c2)[C@@H]2C=C[C@H]1C2` [Example 488, (1S,4s)-4-(2-fluoro-5-(((1R,2R,3S,4S)-3-((4-fluoro-3-(pentafluoro-λ6-sulfaneyl)phenyl)carbamoyl)bicyclo[2.2.1]hept-5-en-2-yl)carbamoyl)-4-methoxyphenoxy)cyclohexane-1-carboxylic acid], the microsomal CLint in data set [1] turned out to be 23 µL/min/mg. Besides, the “Test B Human Plasma Protein Binding (% free)” value in data set [2] is 0.13 % free. In data set [3], this compound registered a hepatocyte CLint of 22 µL/min/1e6 cells. Further, in data set [4], the intrinsic metabolic clearance (hepatocyte CLint) at 1 µM turned out to be 12 µL/min/1e6 cells. The compound further had a solubility in data set [5] of 1000 µM (≈ 667 µg/mL). Further, in data set [6] (RXFP1 Hu cAMP), the “Test A Sinf” value was determined as 115%. The 50% effective concentration (EC50) in data set [6] (setting [7]) is less than 3.6 nM.

For the compound `COc1ccc(O[C@H]2CC[C@@](C)(C(=O)O)CC2)cc1C(=O)N[C@@H]1[C@H]2CC[C@H](C2)[C@@H]1C(=O)NCC1(C)CCC1` [Example 381], in data set [1], the microsomal CLint is 36 µL/min/mg. Also, in data set [2], the “Test B Human Plasma Protein Binding (% free)” value amounted to 3.8 % free. In addition, the intrinsic clearance (hepatocyte CLint) in data set [3] was determined as 21 µL/min/1e6 cells. This compound also displayed a hepatocyte CLint at 1 µM in data set [4] of 6.1 µL/min/1e6 cells. The compound also displayed a solubility in data set [5] of 1000 µM (≈ 527 µg/mL). This compound also came in with an EC50 in data set [6] (Test A EC50, RXFP1 Hu cAMP) of 110 nM.

As to `COc1cc(F)c(OC2CCC(C)(C(=O)O)CC2)cc1C(=O)NC1C2CCC(CC2)C1C(=O)NCC1(C)CCC1` (single isomer, unassigned) [Example 542, (1R,4s)-4-(2-Fluoro-4-methoxy-5-(((2S*,3R*)-3-(((1-methylcyclobutyl)methyl)carbamoyl)bicyclo[2.2.2]octan-2-yl)carbamoyl)phenoxy)-1-methylcyclohexane-1-carboxylic acid], in data set [1], the microsomal CLint is 66 µL/min/mg. Also, the “Test B Human Plasma Protein Binding (% free)” value in data set [2] was found to be 2.5 % free. Besides, the hepatocyte CLint in data set [3] was 12 µL/min/1e6 cells. In data set [4], this compound registered an intrinsic clearance (hepatocyte CLint) at 1 µM of 32 µL/min/1e6 cells. Also, the solubility in data set [5] was found to be 800 µM (≈ 447 µg/mL). The “Test A Sinf” value in data set [6] (RXFP1 Hu cAMP) was determined as 110%. Moreover, in data set [6] (setting [7]), the EC50 was 11 nM.

Turning to `COc1cc(F)c(-c2ccc(S(N)(=O)=O)cc2)cc1C(=O)N[C@@H]1[C@H]2CC[C@H](C2)[C@@H]1C(=O)Nc1cccc(S(=O)(=O)C(F)(F)F)c1` [Example 248], the microsomal CLint in data set [1] amounted to 74 µL/min/mg. Besides, the “Test B Human Plasma Protein Binding (% free)” value in data set [2] is reported as less than 3.3 % free. This compound had a hepatocyte CLint in data set [3] of 32 µL/min/1e6 cells. Moreover, the hepatocyte CLint at 1 µM in data set [4] turned out to be 18 µL/min/1e6 cells. For the same compound, in data set [5], the solubility was 2 µM (≈ 1.34 µg/mL). The “Test A Sinf” value in data set [6] (RXFP1 Hu cAMP) is reported as 108%. Moreover, the EC50 in data set [6] (setting [7]) was 220 nM.

The microsomal CLint is the rate of metabolic loss divided by the concentration. A low value points to slow turnover. For orientation: hepatocyte CLint means the capacity of the preparation to metabolise the compound, expressed as a volume cleared per time. A lower hepatocyte CLint goes with greater metabolic stability. A word on the solubility: it is the dissolved amount per volume that the medium holds. The low end stands for little dissolved substance, the high end for much dissolved substance. The EC50 is the midpoint of the concentration-response curve.

Source of the values: patent US11667602B2, “Compounds and their use” (AstraZeneca AB, priority 2020, dated 2023).
